Like-named read-outs stand apart in the source and are kept apart here.
How the values were obtained:
[1] = log P determination by HPLC on reversed-phase columns (EEC Directive 79/831 Annex V.A8); assay type: physicochemical; details: pH 2.7
Procedure, shortened: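 log P from reversed-phase LC-MS retention at pH 2.7, 0.1% formic acid water/acetonitrile gradient 10–95% acetonitrile. Calibrated against C3–C16 unbranched alkan-2-ones, interpolating linearly between adjacent alkanones.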

[2] = tested on: larvae of the mustard beetle (Phaedon cochleariae); experiment: Phaedon test (PHAECO spray treatment); assay type: in vivo; details: 168 h, 100 g/ha, after 7 days, read-out: activity in %
Procedure, shortened: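 Compound dissolved in acetone/dimethylformamide with alkylaryl polyglycol ether emulsifier, then diluted with emulsifier-containing water to test concentration for spray treatment of Phaedon cochleariae larvae. Activity scored after 7 days as % larvae killed (100% = all dead, 0% = none).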

[3] = tested on: caterpillars of the armyworm (Spodoptera frugiperda); experiment: Spodoptera frugiperda test (SPODFR spray treatment); assay type: in vivo; details: 168 h, after 7 days; for pest or weed control at 100 g/ha: read-out: activity in %
Procedure, shortened: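 Maize leaf discs sprayed with compound diluted in emulsifier-containing water (acetone/DMF solvent, alkylaryl polyglycol ether emulsifier), dried, then infested with armyworm caterpillars. Kill scored after 7 days as % mortality, 100% = all caterpillars dead, 0% = none.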

[4] = reversed-phase C18 HPLC column, HPLC on reversed-phase columns (C 18), EEC Directive 79/831 Annex V.A8, read-out: logP

SMILES | chromatographic logP [1, 4] | chromatographic logP [1] | pest or weed control at 100 g/ha [2] | pest or weed control at 100 g/ha [3] | pest or weed control at 20 g/ha [3]
Cc1cc(I)cc(C(=O)NC2CC2)c1NC(=O)c1cc(Cn2cc(C(F)(C(F)(F)F)C(F)(F)F)nn2)nn1-c1ncccc1Cl [Example 240] | – | 3.83 | 100% | 100% | –
CC(C)NC(=O)c1cc(Cl)cc(Cl)c1NC(=O)c1cc(Cn2cc(C(F)(C(F)(F)F)C(F)(F)F)nn2)nn1-c1ncccc1Cl [Example 243] | – | 3.79 | 100% | 100% | –
O=C(NC1CC1)c1cc(Cl)cc(Cl)c1NC(=O)c1cc(Cn2cc(C(F)(C(F)(F)F)C(F)(F)F)nn2)nn1-c1ncccc1Cl [Example 248] | – | 3.56 | 100% | 100% | –
CNC(=O)c1cc(Cl)cc(C)c1NC(=O)c1cc(Cn2ncc(C(F)(C(F)(F)F)C(F)(F)F)n2)nn1-c1ncccc1Cl [Example 257] | – | 3.76 | 100% | 100% | –
Cc1cc(Cl)cc(C(=O)NC(C)C)c1NC(=O)c1cc(Cn2ncc(C(F)(C(F)(F)F)C(F)(F)F)n2)nn1-c1ncccc1Cl [Example 259] | – | 4.3 | 100% | 100% | –
Cc1cc(Cl)cc(C(=O)NC2CC2)c1NC(=O)c1cc(Cn2ncc(C(F)(C(F)(F)F)C(F)(F)F)n2)nn1-c1ncccc1Cl [Example 264] | – | 4.01 | 100% | 100% | –
Cc1cc(I)cc(C(=O)NC(C)C)c1NC(=O)c1cc(Cn2ncc(C(F)(C(F)(F)F)C(F)(F)F)n2)nn1-c1ncccc1Cl [Example 267] | – | 4.51 | 100% | 100% | –
CSC[C@H](C)NC(=O)c1cc(I)cc(C)c1NC(=O)c1cc(Cn2ncc(C(F)(C(F)(F)F)C(F)(F)F)n2)nn1-c1ncccc1Cl [Example 270] | 4.73 | – | 100% | – | 100%
Cc1cc(I)cc(C(=O)NC2CC2)c1NC(=O)c1cc(Cn2ncc(C(F)(C(F)(F)F)C(F)(F)F)n2)nn1-c1ncccc1Cl [Example 272] | – | 4.26 | 100% | – | 100%
CC(C)NC(=O)c1cc(Cl)cc(Cl)c1NC(=O)c1cc(Cn2ncc(C(F)(C(F)(F)F)C(F)(F)F)n2)nn1-c1ncccc1Cl [Example 275] | – | 4.17 | 100% | 100% | –
CC(C)(C)NC(=O)c1cc(Cl)cc(Cl)c1NC(=O)c1cc(Cn2ncc(C(F)(C(F)(F)F)C(F)(F)F)n2)nn1-c1ncccc1Cl [Example 276] | 4.53 | – | 100% | 100% | –
O=C(NCC1CC1)c1cc(Cl)cc(Cl)c1NC(=O)c1cc(Cn2ncc(C(F)(C(F)(F)F)C(F)(F)F)n2)nn1-c1ncccc1Cl [Example 277] | 4.23 | – | 100% | 100% | –
CSC[C@H](C)NC(=O)c1cc(Cl)cc(Cl)c1NC(=O)c1cc(Cn2ncc(C(F)(C(F)(F)F)C(F)(F)F)n2)nn1-c1ncccc1Cl [Example 278] | 4.38 | – | 100% | 100% | –
NC(=O)c1cc(Cl)cc(Cl)c1NC(=O)c1cc(Cn2ncc(C(F)(C(F)(F)F)C(F)(F)F)n2)nn1-c1ncccc1Cl [Example 279] | – | 3.46 | 100% | 100% | –
O=C(NC1CC1)c1cc(Cl)cc(Cl)c1NC(=O)c1cc(Cn2ncc(C(F)(C(F)(F)F)C(F)(F)F)n2)nn1-c1ncccc1Cl [Example 280] | – | 3.92 | 100% | 100% | –
Cc1cc(I)cc(C(=O)NC2CC2)c1NC(=O)c1cc(Cn2cc(C(F)(F)C(F)(F)F)nn2)nn1-c1ncccc1Cl [Example 310] | – | 3.49 | 100% | 100% | –

The next lines start with results.

chromatographic logP [1, 4] | SMILES | chromatographic logP [1] | pest or weed control at 100 g/ha [2] | pest or weed control at 100 g/ha [3] | pest or weed control at 20 g/ha [3]
4.08 | CC(NC(=O)c1cc(Cl)cc(Cl)c1NC(=O)c1cc(Cn2cc(C(F)(C(F)(F)F)C(F)(F)F)nn2)nn1-c1ncccc1Cl)C1CC1 (stereo not drawn) [Example 242] | – | 100% | 100% | –
4.13 | CC(C)(C)NC(=O)c1cc(Cl)cc(Cl)c1NC(=O)c1cc(Cn2cc(C(F)(C(F)(F)F)C(F)(F)F)nn2)nn1-c1ncccc1Cl [Example 244] | – | 100% | 100% | –
3.84 | O=C(NCC1CC1)c1cc(Cl)cc(Cl)c1NC(=O)c1cc(Cn2cc(C(F)(C(F)(F)F)C(F)(F)F)nn2)nn1-c1ncccc1Cl [Example 245] | – | 100% | 100% | –
4.2 | Cc1cc(C#N)cc(C(=O)NC(C)C2CC2)c1NC(=O)c1cc(Cn2ncc(C(F)(C(F)(F)F)C(F)(F)F)n2)nn1-c1ncccc1Cl (stereo not drawn) [Example 250] | – | 100% | 100% | –
3.89 | Cc1cc(C#N)cc(C(=O)NC(C)C)c1NC(=O)c1cc(Cn2ncc(C(F)(C(F)(F)F)C(F)(F)F)n2)nn1-c1ncccc1Cl [Example 251] | – | 100% | 100% | –
4.21 | Cc1cc(C#N)cc(C(=O)NC(C)(C)C)c1NC(=O)c1cc(Cn2ncc(C(F)(C(F)(F)F)C(F)(F)F)n2)nn1-c1ncccc1Cl [Example 252] | – | 100% | 100% | –
3.95 | Cc1cc(C#N)cc(C(=O)NCC2CC2)c1NC(=O)c1cc(Cn2ncc(C(F)(C(F)(F)F)C(F)(F)F)n2)nn1-c1ncccc1Cl [Example 253] | – | 100% | 100% | –
3.63 | Cc1cc(C#N)cc(C(=O)NC2CC2)c1NC(=O)c1cc(Cn2ncc(C(F)(C(F)(F)F)C(F)(F)F)n2)nn1-c1ncccc1Cl [Example 256] | – | 100% | 100% | –
4.61 | Cc1cc(Cl)cc(C(=O)NC(C)C2CC2)c1NC(=O)c1cc(Cn2ncc(C(F)(C(F)(F)F)C(F)(F)F)n2)nn1-c1ncccc1Cl (stereo not drawn) [Example 258] | – | 100% | 100% | –
4.64 | Cc1cc(Cl)cc(C(=O)NC(C)(C)C)c1NC(=O)c1cc(Cn2ncc(C(F)(C(F)(F)F)C(F)(F)F)n2)nn1-c1ncccc1Cl [Example 260] | – | 100% | 100% | –
4.34 | Cc1cc(Cl)cc(C(=O)NCC2CC2)c1NC(=O)c1cc(Cn2ncc(C(F)(C(F)(F)F)C(F)(F)F)n2)nn1-c1ncccc1Cl [Example 261] | – | 100% | 100% | –
4.86 | Cc1cc(I)cc(C(=O)NC(C)C2CC2)c1NC(=O)c1cc(Cn2ncc(C(F)(C(F)(F)F)C(F)(F)F)n2)nn1-c1ncccc1Cl (stereo not drawn) [Example 266] | – | 100% | 100% | –
4.9 | Cc1cc(I)cc(C(=O)NC(C)(C)C)c1NC(=O)c1cc(Cn2ncc(C(F)(C(F)(F)F)C(F)(F)F)n2)nn1-c1ncccc1Cl [Example 268] | – | 100% | 100% | –
4.58 | Cc1cc(I)cc(C(=O)NCC2CC2)c1NC(=O)c1cc(Cn2ncc(C(F)(C(F)(F)F)C(F)(F)F)n2)nn1-c1ncccc1Cl [Example 269] | – | 100% | 100% | –
4.49 | CC(NC(=O)c1cc(Cl)cc(Cl)c1NC(=O)c1cc(Cn2ncc(C(F)(C(F)(F)F)C(F)(F)F)n2)nn1-c1ncccc1Cl)C1CC1 (stereo not drawn) [Example 274] | – | 100% | – | 100%
4.12 | Cc1cc(C#N)cc(C(=O)NC2(C3CC3)CC2)c1NC(=O)c1cc(Cn2ncc(C(F)(C(F)(F)F)C(F)(F)F)n2)nn1-c1ncccc1Cl [Example 283] | – | 100% | 100% | –
3.93 | Cc1cc(C#N)cc(C(=O)NC(C)(C)C)c1NC(=O)c1cc(Cn2ncc(C(F)(F)F)n2)nn1-c1ccccc1Cl [Example 285] | – | 100% | 100% | –
3.45 | CNC(=O)c1cc(Cl)cc(C)c1NC(=O)c1cc(Cn2ncc(C(F)(F)F)n2)nn1-c1ccccc1Cl [Example 287] | – | 100% | 100% | –
3.17 | Cc1cc(C#N)cc(C(=O)NC(C)C)c1NC(=O)c1cc(Cn2cc(C(F)(F)F)nn2)nn1-c1ccccc1Cl [Example 290] | – | 100% | 100% | –
3.46 | CNC(=O)c1cc(C#N)cc(C)c1NC(=O)c1cc(Cn2cc(C(F)(C(F)(F)F)C(F)(F)F)nn2)nn1-c1ccccc1Cl [Example 295] | – | 100% | 100% | –
2.93 | Cc1cc(C#N)cc(C(=O)NC2CC2)c1NC(=O)c1cc(Cn2cc(C(F)(F)F)nn2)nn1-c1ccccc1Cl [Example 296] | – | 100% | 100% | –
3.88 | CNC(=O)c1cc(C#N)cc(C)c1NC(=O)c1cc(Cn2ncc(C(F)(C(F)(F)F)C(F)(F)F)n2)nn1-c1ccccc1Cl [Example 297] | – | 100% | 100% | –
